Experimental data as given in patent US8664380B2, “Heterocyclic compound and use thereof” (Takeda Pharmaceutical Company Limited, priority 2008, dated 2014).
Counter-ions that a name gives are not always drawn.

Experiments:
plasma renin activity = test: Ex vivo plasma renin activity (PRA) test after oral administration; type: in vivo, Macaca fascicularis; settings: for inhibition at 1 mg/kg: Macaca fascicularis, po, 4 h, read-out: Macaca fascicularis plasma renin activity, PPA inhibitory activity (%, n = 3-7); for Macaca fascicularis plasma renin activity, PPA inhibitory activity (%, n = 3-7): male macaca fascicularis, 1 mg/kg orally in 0.5% methylcellulose, plasma 4 hr after administration, amended with vehicle group
Method: Male macaca fascicularis was used. […] PRA was calculated by the following formula.

Human renin = target: T1, Human renin (Homo sapiens, UniProt P00797); test: Human renin inhibition; angiotensin I formed from angiotensinogen quantified by EIA; settings: for Human renin inhibitory activity, inhibitory activity (%) at 0.1 μM: 0.1 μM test compound, substrate human angiotensinogen, 37° C. 30 min; for inhibition at 0.1 µM: read-out: Human renin inhibitory activity, inhibitory activity (%) at 0.1 μM
T1 sequence (P00797 67-406): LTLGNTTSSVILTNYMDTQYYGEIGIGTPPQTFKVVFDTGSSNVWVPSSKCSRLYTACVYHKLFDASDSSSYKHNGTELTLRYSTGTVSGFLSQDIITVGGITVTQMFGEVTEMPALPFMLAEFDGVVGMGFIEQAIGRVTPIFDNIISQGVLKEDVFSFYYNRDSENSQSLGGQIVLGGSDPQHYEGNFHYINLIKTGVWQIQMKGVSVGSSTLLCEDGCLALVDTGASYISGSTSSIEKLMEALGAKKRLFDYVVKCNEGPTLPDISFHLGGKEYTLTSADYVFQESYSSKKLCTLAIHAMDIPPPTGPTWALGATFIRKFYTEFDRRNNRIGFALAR
Method: As a substrate for renin activity measurement, the angiotensinogen mentioned in (5) above was used. 1 μl each of the test compound (containing 100% DMSO) was added to each well of a 384-well plate (ABgene). Renin was diluted with a buffer solution for reaction (20 mM sodium phosphate (pH 7.4)) to a concentration of 57 pM, and 14 μl each of the dilution was added to each well. The dilution was left to stand at 37° C. for 10 min, and then 5 μl of each of a 6 μM solution of substrate angiotensinogen was added to each well to initiate the reaction. […] The amount of angiotensin I produced by an enzyme reaction was quantified by Enzyme Immuno Assay (EIA) described below.
Anti-angiotensin I antibody (Peninsula Laboratories Inc.) diluted 5,000-fold with PBS was added to each well of a 384 well black plate (Nalge Nunc International Co., Ltd.) by 25 μl, and left standing overnight at 4° C. to immobilize the antibody in the plate. The antibody solution was removed, PBS solution (100 μl) containing 1% BSA was added to each well, and the mixture was left standing at room temperature for 2 hr for blocking. The blocking solution was removed, and each well was washed 5 times with 100 μl of 0.05% Tween20-PBS. […] Then, a biotinated angiotensin I solution (AnaSpec, 15 μl) prepared to 1.6 nM with a buffer [20 mM tris-hydrochloric acid (pH 7.4), 150 mM sodium chloride, 0.01% BSA, 0.05% Tween20] was added to each well, mixed with a plate mixer and left standing at room temperature for 1 hr. The solutions were removed from each well, and each well was washed 5 times with 100 μl of 0.05% Tween20-PBS. Horseradish peroxydase Streptavidin (PIERCE Biotechnology inc., 25 μl) diluted to 100 ng/ml with a buffer [20 mM tris-hydrochloric acid (pH 7.4), 150 mM sodium chloride, 0.1% BSA, 0.05% Tween 20] was added to each well and the mixture was left standing at room temperature for 30 min. The solutions were removed from each well, and each well was washed 5 times with 100 μl of 0.05% Tween20-PBS. SuperSignal ELISA femto Maximum Sensitivity Substrate (PIERCE Biotechnology Inc.) was added by 25 μl and luminescence intensity was measured by EnVision (Perkin Elmer Inc.). An analytical curve was drawn from the luminescence intensity of wells containing an angiotensin I standard solution, and the amount of angiotensin I produced by an enzyme reaction was calculated and used as an index of renin activity.

Compound: COCCCCn1c(C(=O)N(CC(C)C)[C@@H]2CNC[C@H](C(=O)N3CCOCC3)C2)nc2ccccc21 [Example 10, 1-(4-methoxybutyl)-N-(2-methylpropyl)-N-[(3S,5R)-5-(morpholin-4-ylcarbonyl)piperidin-3-yl]-1H-benzimidazole-2-carboxamide dihydrochloride]
- inhibition at 1 mg/kg (plasma renin activity): 72%
- Human renin inhibitory activity, inhibitory activity (%) at 0.1 μM (Human renin): 97%

Compound: COCCCCn1c(C(=O)N(CC(C)C)[C@@H]2CNC[C@H]([C@@H](O)COC)C2)nc2ccccc21 [Example 73-1, N-{(3S,5R)-5-[(1R)-1-hydroxy-2-methoxyethyl]piperidin-3-yl}-1-(4-methoxybutyl)-N-(2-methylpropyl)-1H-benzimidazole-2-carboxamide dihydrochloride]
- inhibition at 1 mg/kg (plasma renin activity): 77%
- inhibition at 0.1 µM (Human renin): 96%

Compound: N-{(3S,5R)-5-[(1S)-1-hydroxyethyl]piperidin-5-yl}-1-(4-methoxybutyl)-N-(2-methylpropyl)-1H-benzimidazole-2-carboxamide dihydrochloride [Example 74-1]
- Macaca fascicularis plasma renin activity, PPA inhibitory activity (%, n = 3-7) (plasma renin activity): 90%
- Human renin inhibitory activity, inhibitory activity (%) at 0.1 μM (Human renin): 94%

Compound: N-{(3S,5R)-5-[(1R)-1-hydroxyethyl]piperidin-5-yl}-1-(4-methoxybutyl)-N-(2-methylpropyl)-1H-benzimidazole-2-carboxamide carboxamide dihydrochloride [Example 74-2]
- Macaca fascicularis plasma renin activity, PPA inhibitory activity (%, n = 3-7) (plasma renin activity): 54%
- Human renin inhibitory activity, inhibitory activity (%) at 0.1 μM (Human renin): 96%

Compound: COCCCCc1c(C(=O)N(CC(C)C)[C@@H]2CNC[C@H](C(=O)N3CCOCC3)C2)nnn1-c1ccccc1Cl [Example 235, 1-(2-chlorophenyl)-5-(4-methoxybutyl)-N-(2-methylpropyl)-N-[(3S,5R)-5-(morpholin-4-ylcarbonyl)piperidin-3-yl]-1H-1,2,3-triazole-4-carboxamide hydrochloride]
- inhibition at 1 mg/kg (plasma renin activity): 62%
- inhibition at 0.1 µM (Human renin): 97%
